Assay results taken from patent US9656963B2 (BRISTOL-MYERS SQUIBB COMPANY, priority 2012, dated 2017).

Target: T1, hGPR40 (Homo sapiens, UniProt O14842)
T1 construct: 3x FLAG; expressed in transfected cells
Assay: FDSS-Based Intracellular Calcium Assay
Type: cell-based
Settings: cells expressing GPR40, intracellular Ca2+ response
In short: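 Flag-tagged GPR40-expressing cells plated overnight in serum-free, phenol red-free DMEM. Compounds added from DMSO stocks, diluted in assay buffer and added as 3x solution. Intracellular Ca^2+ flux read by fluorescence on an FDSS reader.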

T1 sequence (O14842 whole entry): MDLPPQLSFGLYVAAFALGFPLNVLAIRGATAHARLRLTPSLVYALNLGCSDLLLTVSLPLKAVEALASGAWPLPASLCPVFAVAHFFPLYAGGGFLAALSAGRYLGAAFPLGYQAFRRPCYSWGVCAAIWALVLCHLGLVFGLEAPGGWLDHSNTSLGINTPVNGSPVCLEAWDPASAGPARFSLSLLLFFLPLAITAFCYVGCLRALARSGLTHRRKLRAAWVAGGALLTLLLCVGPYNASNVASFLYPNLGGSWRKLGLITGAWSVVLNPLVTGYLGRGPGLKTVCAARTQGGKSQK

Row | EC50 [nM] | Structure (SMILES)
1 | 6 | COc1ccc(F)c(-c2ccc(Cc3ccc(N4N=C(c5ccccc5)C(C)C4CC(=O)O)cc3)c(C)c2)c1 (single isomer, unassigned) [Example 59, Isomer 2, 2-(1-(4-((2′-fluoro-5′-methoxy-3-methyl-[1,1′-biphenyl]-4-yl)methyl)phenyl)-4-methyl-3-phenyl-4,5-dihydro-1H-pyrazol-5-yl)acetic acid]
2 | 970 | COc1ccc(F)c(-c2ccc(Cc3ccc(N4N=C(C(F)(F)F)C(C)C4CC(=O)O)cc3)c(Cl)c2)c1 (single isomer, unassigned) [Example 60, Isomer 1, 22-(1-(4-((3-chloro-2′-fluoro-5′-methoxy-[1,1′-biphenyl]-4-yl)methyl)phenyl)-4-methyl-3-(trifluoromethyl)-4,5-dihydro-1H-pyrazol-5-yl)acetic acid]
3 | 40 | COc1ccc(F)c(-c2ccc(Cc3ccc(N4N=C(C(F)(F)F)C(C)C4CC(=O)O)cc3)c(Cl)c2)c1 (single isomer, unassigned) [Example 60, Isomer 2, 22-(1-(4-((3-chloro-2′-fluoro-5′-methoxy-[1,1′-biphenyl]-4-yl)methyl)phenyl)-4-methyl-3-(trifluoromethyl)-4,5-dihydro-1H-pyrazol-5-yl)acetic acid]
4 | > 16600 | COc1ccc(F)c(-c2ccc(Cc3ccc(N4N=C(c5ncccn5)C(C)C4CC(=O)O)cc3)c(C)c2)c1 (single isomer, unassigned) [Example 61 isomer 1]
5 | 460 | COc1ccc(F)c(-c2ccc(Cc3ccc(N4N=C(c5ncccn5)C(C)C4CC(=O)O)cc3)c(C)c2)c1 (single isomer, unassigned) [Example 61, isomer 2]
6 | 1600 | COc1ccc(F)c(-c2ccc(Cc3ccc(N4N=C(c5ccccn5)C(C)C4CC(=O)O)cc3)c(C)c2)c1 (single isomer, unassigned) [Example 62, isomer 1, 2-(1-(4-((2′-fluoro-5′-methoxy-3-methylbiphenyl-4-yl)methyl)phenyl)-4-methyl-3-(pyridin-2-yl)-4,5-dihydro-1H-pyrazol-5-yl)acetic acid]
7 | 700 | COc1ccc(F)c(-c2ncc(Cc3ccc(N4N=C(C(F)(F)F)[C@@H](C)[C@@H]4CC(=O)O)cc3)c(C)n2)c1 (single isomer, unassigned) [Example 63]
8 | 13 | COc1ccc(F)c(-c2ccc(Cc3ccc(N4N=C(c5ccc(Cl)cc5)[C@@H](C)[C@@H]4CC(=O)O)cc3)c(C)c2)c1 (single isomer, unassigned) [Example 66, Isomer 1]
9 | 510 | COc1ccc(F)c(-c2ccc(Cc3ccc(N4N=C(c5ccc(Cl)cc5)[C@@H](C)[C@@H]4CC(=O)O)cc3)c(C)c2)c1 (single isomer, unassigned) [Example 66, isomer 2]
10 | 9 | COc1ccc(F)c(-c2ccc(Cc3ccc(N4N=C(c5ccc(F)cc5)[C@@H](C)[C@@H]4CC(=O)O)cc3)c(C)c2)c1 (single isomer, unassigned) [Example 67, isomer 1]
11 | 800 | COc1ccc(F)c(-c2ccc(Cc3ccc(N4N=C(c5ccc(F)cc5)[C@@H](C)[C@@H]4CC(=O)O)cc3)c(C)c2)c1 (single isomer, unassigned) [Example 67, isomer 2]
12 | 15 | COc1ccc(F)c(-c2ccc(Cc3ccc(N4N=C(c5cccc(Cl)c5)[C@@H](C)[C@@H]4CC(=O)O)cc3)c(C)c2)c1 (single isomer, unassigned) [Example 68, isomer 1]
13 | 8460 | COc1ccc(F)c(-c2ccc(Cc3ccc(N4N=C(c5cccc(Cl)c5)[C@@H](C)[C@@H]4CC(=O)O)cc3)c(C)c2)c1 (single isomer, unassigned) [Example 68, isomer 2]
14 | 57 | COc1ccc(F)c(-c2ccc(Cc3ccc(N4N=C(c5cc(C)on5)[C@@H](C)[C@@H]4CC(=O)O)cc3)c(C)c2)c1 (single isomer, unassigned) [Example 69, isomer 1]
15 | 2560 | COc1ccc(F)c(-c2ccc(Cc3ccc(N4N=C(c5cc(C)on5)[C@@H](C)[C@@H]4CC(=O)O)cc3)c(C)c2)c1 (single isomer, unassigned) [Example 69, isomer 2]
16 | 63 | COc1ccc(F)c(-c2ccc(Cc3ccc(N4N=C(c5ccccn5)C(C)C4CC(=O)O)cc3)c(C)c2)c1 (single isomer, unassigned) [example 62, isomer 2, 2-(1-(4-((2′-fluoro-5′-methoxy-3-methylbiphenyl-4-yl)methyl)phenyl)-4-methyl-3-(pyridin-2-yl)-4,5-dihydro-1H-pyrazol-5-yl)acetic acid]
17 | 150 | Cc1cc(-c2cc(O)ccc2F)ccc1Cc1ccc(N2N=C(C(F)(F)F)[C@@H](C)[C@@H]2CC(=O)O)cc1 [Example 56, 2-((4S,5S)-1-(4-((2′-fluoro-5′-hydroxy-3-methyl-[1,1′-biphenyl]-4-yl)methyl)phenyl)-4-methyl-3-(trifluoromethyl)-4,5-dihydro-1H-pyrazol-5-yl)acetic acid]
18 | 6620 | COc1ccc(F)c(-c2ccc(Cc3ccc(N4N=C(C(=O)O)[C@@H](C)[C@@H]4CC(=O)O)cc3)c(C)c2)c1 [Example 57, (4S,5S)-5-(carboxymethyl)-1-(4-((2′-fluoro-5′-methoxy-3-methyl-[1,1′-biphenyl]-4-yl)methyl)phenyl)-4-methyl-4,5-dihydro-1H-pyrazole-3-carboxylic acid]
19 | 4290 | Cc1nc(-c2ccccc2)ncc1Cc1ccc(N2N=C(C(F)(F)F)[C@@H](C)[C@@H]2CC(=O)O)cc1 [Example 58, 2-((4S,5S)-4-methyl-1-(4-((4-methyl-2-phenylpyrimidin-5-yl)methyl)phenyl)-3-(trifluoromethyl)-4,5-dihydro-1H-pyrazol-5-yl)acetic acid]
20 | 270 | COc1ccc(F)c(-c2ncc(Cc3ccc(N4N=C(c5ccccc5)[C@@H](C)[C@@H]4CC(=O)O)cc3)c(C)n2)c1 [Example 64, 2-((4S,5S)-1-(4-((2-(2-fluoro-5-methoxyphenyl)-4-methylpyrimidin-5-yl)methyl)phenyl)-4-methyl-3-phenyl-4,5-dihydro-1H-pyrazol-5-yl)acetic acid]
21 | 1490 | COc1ccc(F)c(-c2cnc(Oc3ccc(N4N=C(C(F)(F)F)[C@@H](C)[C@@H]4CC(=O)O)cc3)nc2)c1 [Example 65, 2-((4S,5S)-1-(4-(5-(2-fluoro-5-methoxyphenyl)pyrimidin-2-yloxy)phenyl)-4-methyl-3-(trifluoromethyl)-4,5-dihydro-1H-pyrazol-5-yl)acetic acid]
22 | 120 | CCOc1ccc(F)c(-c2ccc(Cc3ccc(N4N=C(C(F)(F)F)[C@@H](C)[C@@H]4CC(=O)O)cc3)c(C)c2)c1 [Example 70, 2-((4S,5S)-1-(4-((5′-ethoxy-2′-fluoro-3-methyl-[1,1′-biphenyl]-4-yl)methyl)phenyl)-4-methyl-3-(trifluoromethyl)-4,5-dihydro-1H-pyrazol-5-yl)acetic acid]
23 | 5760 | C[C@@H]1C(C(F)(F)F)=NN(c2ccc(CCCc3ccccc3)cc2)[C@H]1CC(=O)O [Example 71, 2-((4S,5S)-4-methyl-1-(4-(3-phenylpropyl)phenyl)-3-(trifluoromethyl)-4,5-dihydro-1H-pyrazol-5-yl)acetic acid]
24 | 7020 | C[C@@H]1C(C(F)(F)F)=NN(c2ccc(CCCc3cccc(F)c3)cc2)[C@H]1CC(=O)O [Example 72, 2-((4S,5S)-1-(4-(3-(3-fluorophenyl)propyl)phenyl)-4-methyl-3-(trifluoromethyl)-4,5-dihydro-1H-pyrazol-5-yl)acetic acid]
25 | 37 | COc1cccc(-c2ccc(Cc3ccc(N4N=C(C(F)(F)F)[C@@H](C)[C@@H]4CC(=O)O)cc3)c(C)c2)c1 [Example 73]
26 | 210 | COc1cc(-c2ccc(Cc3ccc(N4N=C(C(F)(F)F)[C@@H](C)[C@@H]4CC(=O)O)cc3)c(C)c2)c(F)cn1 [Example 74, 2-((4S,5 S)-1-(4-(4-(5-fluoro-2-methoxypyridin-4-yl)-2-methylbenzyl)phenyl)-4-methyl-3-(trifluoromethyl)-4,5-dihydro-1H-pyrazol-5-yl)acetic acid]
27 | 430 | COc1cc(-c2ccc(Cc3ccc(N4N=C(C(F)(F)F)[C@@H](C)[C@@H]4CC(=O)O)cc3)c(C)c2)ccn1 [Example 75, 2-((4S,5S)-1-(4-(4-(2-methoxypyridin-4-yl)-2-methylbenzyl)phenyl)-4-methyl-3-(trifluoromethyl)-4,5-dihydro-1H-pyrazol-5-yl)acetic acid]
28 | 1620 | Cc1cc(-c2cnccn2)ccc1Cc1ccc(N2N=C(C(F)(F)F)[C@@H](C)[C@@H]2CC(=O)O)cc1 [Example 76, 2-((4S,5 S)-4-methyl-1-(4-(2-methyl-4-(pyrazin-2-yl)benzyl)phenyl)-3-(trifluoromethyl)-4,5-dihydro-1H-pyrazol-5-yl)acetic acid]
29 | 5370 | COc1ncccc1-c1ccc(Cc2ccc(N3N=C(C(F)(F)F)[C@@H](C)[C@@H]3CC(=O)O)cc2)c(C)c1 [Example 77, 2-((4S,5S)-1-(4-(4-(2-methoxypyridin-3-yl)-2-methylbenzyl)phenyl)-4-methyl-3-(trifluoromethyl)-4,5-dihydro-1H-pyrazol-5-yl)acetic acid]
30 | 8330 | Cc1cc(-c2ccncc2)ccc1Cc1ccc(N2N=C(C(F)(F)F)[C@@H](C)[C@@H]2CC(=O)O)cc1 [Example 78, 2-((4S,5S)-4-methyl-1-(4-(2-methyl-4-(pyridin-4-yl)benzyl)phenyl)-3-(trifluoromethyl)-4,5-dihydro-1H-pyrazol-5-yl)acetic acid]
